Experimental findings from patent US20240246942A1, “KINASE INHIBITORS FOR THE TREATMENT OF NEURODEGENERATIVE DISEASES” (priority 2020, published 2024) are described below.

Common to all, as to experiment: biochemical
For test [1], the target named is T1, panel of 374 wild-type kinases (Homo sapiens, UniProt P43405).
T1 construct: purchased Reaction Biology Corporation
Conditions: read-out: % Enzyme Activity (relative to DMSO controls), kinase SYK.

Test [2] addresses T2, panel of 374 wild-type kinases (Homo sapiens, UniProt O94804).
T2 construct: purchased Reaction Biology Corporation
Conditions: read-out: % Enzyme Activity (relative to DMSO controls), LOK/STK10.

The target of test [3] is T3, panel of 374 wild-type kinases (Homo sapiens, UniProt Q96BR1).
T3 construct: purchased Reaction Biology Corporation
T3 sequence (Q96BR1 1-496): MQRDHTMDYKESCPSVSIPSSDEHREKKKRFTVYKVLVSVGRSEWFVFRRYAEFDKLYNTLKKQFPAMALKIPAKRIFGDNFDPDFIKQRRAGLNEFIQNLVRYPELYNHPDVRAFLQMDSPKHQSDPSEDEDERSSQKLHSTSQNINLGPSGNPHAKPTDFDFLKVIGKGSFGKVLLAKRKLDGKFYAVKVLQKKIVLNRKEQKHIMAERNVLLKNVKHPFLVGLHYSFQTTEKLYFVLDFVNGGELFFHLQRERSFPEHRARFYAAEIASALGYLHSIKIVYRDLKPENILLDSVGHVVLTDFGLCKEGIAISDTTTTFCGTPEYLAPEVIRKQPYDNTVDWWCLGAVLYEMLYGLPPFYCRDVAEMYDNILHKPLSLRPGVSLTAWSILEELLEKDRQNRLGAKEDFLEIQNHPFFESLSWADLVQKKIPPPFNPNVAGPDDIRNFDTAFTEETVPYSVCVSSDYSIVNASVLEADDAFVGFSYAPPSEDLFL
Conditions: read-out: % Enzyme Activity (relative to DMSO controls), kinase SGK3/SGKL.

In test [4] the target is T4, panel of 374 wild-type kinases (Homo sapiens, UniProt O15264).
T4 construct: purchased Reaction Biology Corporation
T4 sequence (O15264 1-365): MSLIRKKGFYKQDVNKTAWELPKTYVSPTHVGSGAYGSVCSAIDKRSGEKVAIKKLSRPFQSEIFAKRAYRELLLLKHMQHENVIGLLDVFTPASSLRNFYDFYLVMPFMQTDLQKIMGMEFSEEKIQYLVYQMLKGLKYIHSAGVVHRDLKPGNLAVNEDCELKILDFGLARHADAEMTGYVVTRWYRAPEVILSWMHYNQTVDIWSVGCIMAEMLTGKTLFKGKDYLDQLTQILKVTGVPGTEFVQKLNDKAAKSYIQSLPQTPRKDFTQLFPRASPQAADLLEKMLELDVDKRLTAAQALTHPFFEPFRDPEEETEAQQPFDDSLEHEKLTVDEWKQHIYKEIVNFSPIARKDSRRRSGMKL
Conditions: read-out: % Enzyme Activity (relative to DMSO controls), kinase P38d/MAPK13.

Test [5] concerns the target T5, panel of 374 wild-type kinases (Homo sapiens, UniProt Q6XUX3).
T5 construct: purchased Reaction Biology Corporation
T5 sequence (Q6XUX3 1-929): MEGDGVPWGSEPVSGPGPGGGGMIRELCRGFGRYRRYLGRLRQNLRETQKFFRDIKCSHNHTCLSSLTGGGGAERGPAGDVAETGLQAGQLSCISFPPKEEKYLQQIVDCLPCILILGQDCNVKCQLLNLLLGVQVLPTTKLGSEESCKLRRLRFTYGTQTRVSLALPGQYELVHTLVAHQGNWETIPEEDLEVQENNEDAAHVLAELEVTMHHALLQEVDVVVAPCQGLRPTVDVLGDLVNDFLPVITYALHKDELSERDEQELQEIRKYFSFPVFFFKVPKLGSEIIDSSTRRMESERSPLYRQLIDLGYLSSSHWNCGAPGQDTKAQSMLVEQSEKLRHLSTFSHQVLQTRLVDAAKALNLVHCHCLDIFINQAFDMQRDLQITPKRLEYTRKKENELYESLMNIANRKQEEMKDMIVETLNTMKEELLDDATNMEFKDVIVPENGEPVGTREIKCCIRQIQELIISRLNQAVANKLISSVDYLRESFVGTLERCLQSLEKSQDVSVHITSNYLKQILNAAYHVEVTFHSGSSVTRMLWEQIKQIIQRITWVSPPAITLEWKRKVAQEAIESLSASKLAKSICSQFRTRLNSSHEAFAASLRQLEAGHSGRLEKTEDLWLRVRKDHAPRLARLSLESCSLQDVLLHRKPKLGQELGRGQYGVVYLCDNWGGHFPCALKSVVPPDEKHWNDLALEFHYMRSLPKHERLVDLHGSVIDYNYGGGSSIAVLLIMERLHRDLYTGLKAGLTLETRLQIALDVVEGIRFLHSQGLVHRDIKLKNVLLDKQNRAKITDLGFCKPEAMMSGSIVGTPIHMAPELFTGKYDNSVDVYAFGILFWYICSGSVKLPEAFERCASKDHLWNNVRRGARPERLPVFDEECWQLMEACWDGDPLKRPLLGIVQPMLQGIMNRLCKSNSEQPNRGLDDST
The settings on record: read-out: % Enzyme Activity (relative to DMSO controls), kinase RIPK5.

T2 sequence (O94804 whole entry): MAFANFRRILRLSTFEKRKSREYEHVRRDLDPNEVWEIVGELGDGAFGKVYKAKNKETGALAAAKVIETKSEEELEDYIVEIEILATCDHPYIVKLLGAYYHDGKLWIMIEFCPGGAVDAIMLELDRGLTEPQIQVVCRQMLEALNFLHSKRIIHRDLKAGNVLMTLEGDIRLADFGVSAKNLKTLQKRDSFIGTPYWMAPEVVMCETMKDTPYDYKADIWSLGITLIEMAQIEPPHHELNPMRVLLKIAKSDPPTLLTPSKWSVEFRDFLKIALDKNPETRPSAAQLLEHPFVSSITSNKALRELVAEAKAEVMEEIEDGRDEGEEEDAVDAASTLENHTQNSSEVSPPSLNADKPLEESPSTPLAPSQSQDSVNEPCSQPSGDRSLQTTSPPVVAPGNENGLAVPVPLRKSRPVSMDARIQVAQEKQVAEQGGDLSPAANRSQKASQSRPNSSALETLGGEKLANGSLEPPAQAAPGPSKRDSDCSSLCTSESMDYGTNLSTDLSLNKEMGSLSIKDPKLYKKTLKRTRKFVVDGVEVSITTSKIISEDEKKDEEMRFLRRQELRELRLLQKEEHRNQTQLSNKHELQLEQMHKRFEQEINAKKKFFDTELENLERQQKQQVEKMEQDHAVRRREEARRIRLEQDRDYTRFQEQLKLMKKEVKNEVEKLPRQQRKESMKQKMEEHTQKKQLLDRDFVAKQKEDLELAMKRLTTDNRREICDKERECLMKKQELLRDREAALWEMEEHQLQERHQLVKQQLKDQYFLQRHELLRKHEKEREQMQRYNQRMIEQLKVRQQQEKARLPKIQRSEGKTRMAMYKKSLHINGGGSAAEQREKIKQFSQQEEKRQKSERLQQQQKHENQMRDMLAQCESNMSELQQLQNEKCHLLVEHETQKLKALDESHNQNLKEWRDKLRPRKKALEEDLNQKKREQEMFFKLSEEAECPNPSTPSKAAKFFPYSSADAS

Consider `O=C(Nc1cnn(-c2csc(C(=O)NC3COC3)c2)c1)Nc1ccccc1Cl` [Compound 17, 4-(4-(3-(2-chlorophenyl)ureido)-1H-pyrazol-1-yl)-N-(oxetan-3-yl)thiophene-2-carboxamide], for which the remaining activity at 5 µM in test [1] worked out at 104%; in test [2], 87.9%; in test [3], 93.8%; in test [4], 122%; in test [5] it was 102%.

For the compound `O=C(Nc1cnn(-c2csc(C(=O)NC3COC3)c2)c1)Nc1c(F)cccc1Cl` [Compound 25, 4-(4-(3-(2-chloro-6-fluorophenyl)ureido)-1H-pyrazol-1-yl)-N-(oxetan-3-yl)thiophene-2-carboxamide], the remaining activity at 5 µM amounted to 90.3% in test [1]; 89% in test [2]; 95.3% in test [3]; 98.4% in test [4]; 95.5% in test [5].

For `Cc1sc(C(=O)NC2COC2)cc1-n1cc(NC(=O)Nc2c(F)cccc2Cl)cn1` [Compound 27, 4-(4-(3-(2-chloro-6-fluorophenyl)ureido)-1H-pyrazol-1-yl)-5-methyl-N-(oxetan-3-yl)thiophene-2-carboxamide], the remaining activity at 10 µM in test [1] (10 uM) stood at 88.5%; in test [2] (10 uM), 96.4%; in test [3] (10 uM) it was 90.1%; in test [4] (10 uM), 89.2%; in test [5] (10 uM), 96.6%.
